Experimental data as given in article PMC2829052, “Mycobacterium tuberculosis Peptides Presented by HLA-E Molecules Are Targets for Human CD8^+ T-Cells with Cytotoxic as well as Regulatory Activity” (PLoS Pathogens, 2010).
Like-named read-outs stand apart in the source and are kept apart here. Where no end group is shown, it is not given here.

Tests used:
[1] = biological target: T1, recombinant human HLA-E*0103 (Homo sapiens, UniProt P13747); test: biochemical; type: binding
T1 construct: made in house; host or cells: E. coli

CD3+CD8+CD56- T-cells = type: cell-based, human; conditions: for percentage of proliferation within CD3+CD8+CD56- cells: PBMCs, peptide 10 µg/ml (PHA 2 µg/ml, PPD 5 µg/ml), IL-7, IL-2 day 7, CFSE read day 10
TGFβ1 = type: cell-based, human
CD8+ T-cells = type: cell-based, human
[2] = concentration of peptide reducing fluorescence of standard peptide VMAPC(Fl)TLLL (100 fmol) by 50%, […], gel filtration HPLC, emission 528 nm, at least two separate experiments, read-out: Binding

Molecule	IC50 [1, 2] [µM]	other results
WLPPLLTNL [Peptide 69]		IC50 [1]: 39 µM
REPRRGPRL-OH [Peptide 51]		IC50 [1]: > 50 µM
FLLPRGLAI-OH [Peptide 54]	> 50	percentage of proliferation within CD3+CD8+CD56- cells (CD3+CD8+CD56- T-cells; donor 2): 15.8%; percentage of proliferation within CD3+CD8+CD56- cells (CD3+CD8+CD56- T-cells; donor 4): 0.2%; percentage of proliferation within CD3+CD8+CD56- cells (CD3+CD8+CD56- T-cells; donor 6): 1.6%
EMGRAPLDL-OH [Peptide 43]	> 50	
LAP: recombinant latency associated peptide, reverts active TGFβ to a latent, inactive form (R&D systems)		increased proliferation on addition of LAP to the indicator clone only (TGFβ1; Rp15 1-1 clone without Tregs, data not shown): ≤ 20%; increase of proliferation on addition of LAP to co-cultures of Tregs and indicator clones (TGFβ1; Tregs + Rp15 1-1, 0.5 µg/ml cognate peptide, HLA-DR3+ APCs, 3 days): over 40%
GMGMVGTAL-OH [Peptide 35, GMGMVGTAL]	> 50	
VLRPGGHFL [Peptide 68]	1.8	
LMGAEADAL-OH [Peptide 17, LMGAEADAL]	> 50	
FLAADALVL-OH [Peptide 15]	> 50	
VMAPDAVRI [Peptide 63]	31	
VLPACLGIL [Peptide 67]	12	
PMAPLAPLL [Peptide 20]	3	
RMAATAQVL [Peptide 14]	2	
TSADRAVVL [Peptide 28]	39	
RLGRLLNRI-OH [Peptide 56]	> 50	
VMMSEIAGL [Peptide 32]	13	
RSCPRLTIL-OH [Peptide 64]	> 50	
RLASCRDAL-OH [Peptide 61, RLASCRDAL]		number of PPD responding adult donors recognizing the peptide (CD3+CD8+CD56- T-cells; 10 PPD responders, recognition = >10% proliferating CD3+CD8+CD56- T-cells): not by any; number of BCG vaccinees recognizing the peptide (CD8+ T-cells): 2
VMTTVLATL [Peptide 34]	1.8	
GLDSRAYRL-OH [Peptide 18]	> 50	
CC[C@H](C)[C@H](N)C(=O)N[C@@H](CC(C)C)C(=O)N1CCC[C@H]1C(=O)N[C@@H](CO)C(=O)N[C@@H](CC(=O)O)C(=O)N[C@@H](C)C(=O)N1CCC[C@H]1C(=O)N[C@H](C(=O)N[C@@H](CC(C)C)C(=O)O)C(C)C [Peptide 49]	0.2	
KMNAKAATL [Peptide 4]	15	
QLAPGLQLI-OH [Peptide 46]	> 50	
LPAERAHEL-OH [Peptide 31]		IC50 [1]: > 50 µM
RMPPLGHEL [Peptide 62]		IC50 [1]: 4 µM
CC(C)C[C@H](NC(=O)[C@H](CC(C)C)NC(=O)[C@@H]1CCCN1C(=O)[C@H](C)NC(=O)[C@H](CCCCN)NC(=O)[C@H](C)NC(=O)[C@@H]1CCCN1C(=O)[C@H](CC(C)C)NC(=O)[C@@H](N)CCCNC(=N)N)C(=O)O [Peptide 44]	0.03	

Molecule	IC50 [1, 2] [µM]	other results
WMCDRAVDL-OH [Peptide 9]		IC50 [1]: > 50 µM
DLPSRLGKI-OH [Peptide 58]	> 50	
EMLTSRGLL-OH [Peptide 37]		IC50 [1]: > 50 µM
VSNLRTGKL-OH [Peptide 27]		IC50 [1]: > 50 µM
RPANLAFFL [Peptide 59]		IC50 [1]: 1.3 µM
AMAGSIDLL [Peptide 36]	34	
PMADIAAAL-OH [Peptide 23, PMADIAAAL]	> 50	
LMGALAVVL [Peptide 26]	21	
VLLPGLPYL [Peptide 50]		IC50 [1]: 8 µM
CC[C@H](C)[C@H](N)C(=O)N[C@@H](CCSC)C(=O)N[C@@H](C)C(=O)N[C@@H](CC(N)=O)C(=O)N[C@@H](CCCNC(=N)N)C(=O)N[C@@H](C)C(=O)N[C@@H](CCC(N)=O)C(=O)N[C@H](C(=O)N[C@@H](CC(C)C)C(=O)O)C(C)C [Peptide 3]	0.4	
GLDARAYRL-OH [Peptide 19]	> 50	
CSCC[C@H](NC(=O)[C@@H](N)CCC(N)=O)C(=O)N[C@@H](CCCCN)C(=O)N[C@@H](Cc1ccccc1)C(=O)N[C@@H](Cc1ccc(O)cc1)C(=O)N[C@@H](C)C(=O)N[C@H](C(=O)N[C@@H](C)C(=O)N[C@@H](CC(C)C)C(=O)O)C(C)C [Peptide 5, QMKFYAVAL]		IC50 [1]: 1.5 µM
RLRPELAGL [Peptide 52]	46	
PMKRTALAL [Peptide 6, PMKRTALAL]	18	
TMITFRLRL [Peptide 33]	2.4	
FMTRLGPLL [Peptide 60]		IC50 [1]: 37 µM
RLANLLPLI [Peptide 48]	32	
IEPRGAQAL-OH [Peptide 57, IEPRGAQAL]		IC50 [1]: > 50 µM
SMAGRAGQL-OH [Peptide 2]	> 50	
DMLGRAGGL-OH [Peptide 12]	> 50	
EMVLRADQL-OH [Peptide 11]	> 50	
SMADRAENL-OH [Peptide 1]	> 50	
LMHYRGELL [Peptide 29]		IC50 [1]: 20 µM
VEAFRTRPL-OH [Peptide 16]	> 50	
VMATRRNVL [Peptide 55]	16	
GMNVTAPAL [Peptide 7, GMNVTAPAL]	8	
